As usually defined, the IC50 is the concentration that gives 50% inhibition. Low values mean higher potency, high ones lower potency.

Consider one compound from patent US9879029B2, “ERK inhibitors” (Eli Lilly and Company, priority 2014, dated 2018).

One test has as its target T1, ERK2 (Homo sapiens, UniProt P28482).
T1 construct: purchased Invitrogen PV3595B
Nature of the test: ERK2 kinase assay (TR-FRET). The format is biochemical. Particulars: Abs_IC50, ATP 10 μM; ±0.682, n=17. The method, then:
The purpose of this assay is to measure the ability of compounds to inhibit ERK2 kinase activity. Perform the ERK2 kinase assay in vitro using a TR-FRET assay. Start all reactions (12.5 μL) by adding 5 µL of ERK2 enzyme (Invitrogen, #PV3595B, final conc 50 ng/mL) plus substrate GFP-ATF2 (Invitrogen, #PV4445, final conc 0.2 μM), 5 µL of ATP solution (Invitrogen, #PV3227, final conc 10 μM) prepared in kinase buffer (50 mM Hepes pH 7.4, 5 mM MgCl2, 0.1 mM EGTA, 0.01% Triton X-100, 1 mM DTT) and 2.5 μL of testing compounds in DMSO solution ([…], v/v) in a 384-well PROXIPLATE™ (Perkin Elmer, #GRN6260). Incubate reactions at room temperature for 60 minutes. Stop reactions by addition of […] of stop buffer (10 mM EDTA, 2 nM Tb-anti-pATF2 (pThr71) antibody, Invitrogen, #PV4448) in TR-FRET dilution buffer (Invitrogen, # PV3574). Incubate the plates at room temperature for an additional 60 minutes and read ON ENVISION® (PerkinElmer) plate reader at the excitation wavelength of 340 nm. Calculate a TR-FRET ratio by dividing the GFP acceptor emission signal (at 520 nm) by the Tb donor emission signal (at 495 nm). Calculate percent inhibition using compound wells relative to on-plate Max (DMSO control) and Min (No enzyme added) control wells TR-FRET ratio data {% inhibition=100−[(test compound−median Min)/(median Max−Min)×100]}. […]
A general note: TR-FRET usually uses a lanthanide donor and a delayed reading to cut background.

Test [1] relates to human pancreatic cancer cells SW1990. Nature of the test: Xenograft tumor model SW1990. Format: in vivo, female athymic nude mice. Particulars: oral. The method, then: (§1) The purpose of this assay is to measure reduction in tumor volume in response to test compound administration. Expand human colorectal cancer cells HCT116 (ATCC, #CCL-247) or human non-small cell lung cancer cells NCI-H358 (ATCC, # CRL-5807) in culture, harvest and inject 5×10e^6 cells in 200 μL of 1:1 HBSS+matrigel solution subcutaneously on to the rear right flank of female athymic nude mice (22-25 gm, Harlan Laboratories). Expand human pancreatic cancer cells SW1990 (ATCC, # CRL-2172) in culture, harvest and inject 2×10e^6 cells in 200 μL of 1:1 HBSS+matrigel solution subcutaneously on to the rear right flank of female athymic nude mice (22-25 gm, Harlan Laboratories). Expand human pancreatic cancer cells MIA PACA-2 (ATCC, # CRL-1420) or human non-small cell lung cancer cells A549 (ATCC, # CCl-185) in culture, harvest and inject 5×10e^6 cells in 200 μL of 1:1 HBSS+matrigel solution subcutaneously on to the rear right flank of female CB-17 SCID mice (22-25 gm, Charles River Laboratories International Inc.). Expand human melanoma cells A-375 (ATCC, # CRL-1619) in culture, harvest and inject 5×10e^6 cells in 200 μL of 1:1 HBSS+matrigel solution subcutaneously on to the rear right flank of female NIH nude rats (140-160 gm, Taconic Farms). […] Tumor response is determined by tumor volume measurement performed twice a week during the course of treatment.

The test system of the next test is CALU-6. Kind of test: Xenograft tumor model CALU-6. The format is in vivo. Particulars: oral.
The test system of test [2] is human melanoma cells A-375. Nature of the test: Xenograft tumor model A-375. The format is in vivo, female NIH nude rats. Particulars: oral; for Regression (%): p <0.001. As to the method:
The purpose of this assay is to measure reduction in tumor volume in response to test compound administration. Expand human colorectal cancer cells HCT116 (ATCC, #CCL-247) or human non-small cell lung cancer cells NCI-H358 (ATCC, # CRL-5807) in culture, harvest and inject 5×10e^6 cells in 200 μL of 1:1 HBSS+matrigel solution subcutaneously on to the rear right flank of female athymic nude mice (22-25 gm, Harlan Laboratories). Expand human pancreatic cancer cells SW1990 (ATCC, # CRL-2172) in culture, harvest and inject 2×10e^6 cells in 200 μL of 1:1 HBSS+matrigel solution subcutaneously on to the rear right flank of female athymic nude mice (22-25 gm, Harlan Laboratories). Expand human pancreatic cancer cells MIA PACA-2 (ATCC, # CRL-1420) or human non-small cell lung cancer cells A549 (ATCC, # CCl-185) in culture, harvest and inject 5×10e^6 cells in 200 μL of 1:1 HBSS+matrigel solution subcutaneously on to the rear right flank of female CB-17 SCID mice (22-25 gm, Charles River Laboratories International Inc.). Expand human melanoma cells A-375 (ATCC, # CRL-1619) in culture, harvest and inject 5×10e^6 cells in 200 μL of 1:1 HBSS+matrigel solution subcutaneously on to the rear right flank of female NIH nude rats (140-160 gm, Taconic Farms). Measure tumor growth and body weight twice per week beginning the seventh day after the implantation. When tumor sizes reach 200-400 mm^3, randomize animals and group into groups of eight to ten animals. Prepare test compound in an appropriate vehicle (vehicle: 1% HEC/0.25% Tween 80/0.05% Antifoam) and administer by oral gavage for 14 to 28 days. Tumor response is determined by tumor volume measurement performed twice a week during the course of treatment.

The test system of test [3] is human non-small cell lung cancer cells A549. Nature of the test: Xenograft tumor model A549. The format is in vivo, female CB-17 SCID mice. To be noted: oral. The method, then:
as §1

Molecules are shown by their SMILES.

T1 sequence (P28482 whole entry): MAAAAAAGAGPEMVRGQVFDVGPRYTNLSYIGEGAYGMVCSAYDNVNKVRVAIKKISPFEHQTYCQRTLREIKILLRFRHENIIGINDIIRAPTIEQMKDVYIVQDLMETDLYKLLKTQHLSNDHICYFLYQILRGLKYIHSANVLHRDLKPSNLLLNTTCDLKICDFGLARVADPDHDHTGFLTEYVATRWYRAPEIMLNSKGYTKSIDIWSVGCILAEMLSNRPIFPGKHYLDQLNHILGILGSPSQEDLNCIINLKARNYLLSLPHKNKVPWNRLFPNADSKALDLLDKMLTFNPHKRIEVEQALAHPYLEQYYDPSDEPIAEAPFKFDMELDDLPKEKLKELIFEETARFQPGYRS

At ERK2, `COCCN1C(=O)c2cc(-c3ccnc(Nc4ccnn4C)c3)sc2C1(C)C` [Example 1, 5-(2-Methoxyethyl)-6,6-dimethyl-2-{2-[(1-methyl-1H-pyrazol-5-yl)amino]pyridin-4-yl}-5,6-dihydro-4H-thieno[2,3-c]pyrrol-4-one] gave an IC50 of 1.93 nM. Further, the “Delta T/C (%)” value turned out to be 24% in test [1] (SW1990, 10 mg/kg BID, p 0.364); 64% in test [1] (SW1990, 30 mg/kg BID, p 0.005); 44% in the test on CALU-6 (CALU-6, 10 mg/kg BID, p 0.013); 46% in the test on CALU-6 (CALU-6, 25 mg/kg QD, p 0.010); 92% with CALU-6 (CALU-6, 50 mg/kg QD, p <0.001); 10% in test [2] (A-375, 3 mg/kg QD, p 0.852). The “Delta T/C (%)” value worked out at 13% in test [3] (A549, 10 mg/kg BID, p 0.471) and 66% in test [3] (A549, 30 mg/kg BID, p <0.001). Moreover, the “Regression (%)” value is given as −10% in the test with CALU-6 (CALU-6, 25 mg/kg BID, p <0.001); −75% in the test with CALU-6 (CALU-6, 50 mg/kg BID, p <0.001); −38% with CALU-6 (CALU-6, 75 mg/kg QD, p <0.001); −60% in test [2] (A-375, 3 mg/kg BID); −47% in test [2] (A-375, 15 mg/kg BID).
